From patent publication US10786484B2, “Mono- or di-substituted indole derivatives as dengue viral replication inhibitors” (Janssen Pharmaceuticals, Inc., priority 2015, dated 2020) come the findings set out here.

Read-outs that look alike come from different tables or passages of the source. Where only a bound is given, the exact number is not on record here.

Data set [1] deals with Vero cells. The settings on record: African green monkey.
A short description of a further data set: in vitro. The conditions noted are these: African green monkey, CC50. Format: cell-based. As for the experimental part: (§1) The antiviral activity of the compounds of the invention was tested against DENV-1 strain TC974#666 (NCPV), DENV-2 strain 16681, DENV-3 strain H87 (NCPV) and DENV-4 strains H241 (NCPV) and EDEN (SG/06K2270DK1/2005; GenBank accession number QG398256) in a RT-qPCR assay. Therefore, Vero cells were infected with either DENV-1, or -2, or -3, or -4 in the presence or absence of test compounds. At day 3 post-infection, the cells were lysed and cell lysates were used to prepare cDNA of both a viral target (the 3′UTR of DENV; Table 2) and a cellular reference gene (β-actin, Table 2). Subsequently, a duplex real time PCR was performed on a Lightcycler480 instrument. The generated Cp value is inversely proportional to the amount of RNA expression of these targets. Inhibition of DENV replication by a test compound results in a shift of Cp's for the 3′UTR gene. On the other hand, if a test compound is toxic to the cells, a similar effect on β-actin expression will be observed. The comparative ΔΔCp method is used to calculate EC50, which is based on the relative gene expression of the target gene (3′UTR) normalized with the cellular housekeeping gene (β-actin). In addition, CC50 values are determined based on the Cp values acquired for the housekeeping gene β-actin.
(§2) The culture medium consisted of minimal essential medium supplemented with 2% of heat-inactivated fetal calf serum, 0.04% gentamycin (50 mg/mL) and 2 mM of L-glutamine. Vero cells, obtained from ECACC, were suspended in culture medium and 75 μL/well was added in 96-well plates (10000 cells/well), which already contain the antiviral compounds. […] In addition, each plate contains wells which are assigned as virus controls (containing cells and virus in the absence of compound) and cell controls (containing cells in the absence of virus and compound). Once the cells were added in the plates, the plates were incubated in a fully humidified incubator (37° C., 5% CO2) until the next day. Dengue viruses serotype-1, 2, 3 and 4 were diluted in order to obtain a Cp of ˜22-24 in the assay. Therefore, 25 μL of virus suspension, was added to all the wells containing test compound and to the wells assigned as virus control. In parallel, 25 μL of culture medium was added to the cell controls. Next, the plates were incubated for 3 days in a fully humidified incubator (37° C., 5% CO2). After 3 days, the supernatant was removed from the wells and the cells were washed twice with ice-cold PBS (−100 μL). The cell pellets within the 96-well plates were stored at −80° C. for at least 1 day. Next, RNA was extracted using the Cells-to-CT™ lysis kit, according to the manufacturer's guideline (Life Technologies). The cell lysates can be stored at −80° C. or immediately used in the reverse transcription step.
(§3) Using the LightCycler software and an in-house LIMS system, dose response curves for each compound were calculated and the half maximal effective concentration (EC50) and the half maximal cytotoxic concentration (CC50) were determined (Tables 5-8).

Another data set concerns DENV-2 strain 16681. Briefly: Tetravalent RT-qPCR assay Protocol A, serotype 2. It counts as cell-based. The conditions noted are these: Dengue virus, DENV2, 72 h; RT-qPCR serotype 2 16681, Vero cells, day 3. Here is the method: as §1, §2
(§4) In preparation of the reverse transcription step, mix A (table 3A) was prepared and 7.57 μL/well was dispensed in a 96-well plate. After addition of 5 μL of the cell lysates, a five minute denaturation step at 75° C. was performed (table 3B). Afterwards, 7.43 μL of mix B was added (table 3C) and the reverse transcription step was initiated (table 3D) to generate cDNA.
(§5) Finally, a RT-qPCR mix was prepared, mix C (table 4A), and 22.02 μL/well was dispensed in 96-well LightCycler qPCR plates to which 3 μL of cDNA was added and the qPCR was performed according to the conditions in table 4B on a LightCycler 480.
as §3
A general note: Quantitative PCR measures a nucleic acid by following its amplification.

The subject of a further data set is DENV-3 strain H87. Kind of data set: Tetravalent RT-qPCR assay Protocol A, serotype 3. Format: cell-based. The settings on record: Dengue virus, DENV3, 72 h; RT-qPCR serotype 3 H87, Vero cells, day 3. Here is the method: as §1, §2, §4, §5, §3
The test system of a further data set is DENV-1 strain TC974#666. Kind of data set: Tetravalent RT-qPCR assay Protocol A, serotype 1. The conditions noted are these: Dengue virus, DENV1, 72 h; RT-qPCR serotype 1 TC974#666, Vero cells, day 3. Format: cell-based. Here is the method:
as §1, §2, §4, §5, §3

Data set [2] concerns DENV-2 16681 strain labeled with eGFP. Briefly: DENV-2 antiviral assay (eGFP fluorescence read-out in Vero cells). Format: cell-based, Dengue virus. The conditions noted are these: DENV-2 16681 eGFP, MOI 0.5, 3 days. A digest of the protocol:
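Vero cells (2500/well) pre-plated with compound (9-step 5-fold series), infected next day with eGFP-labeled DENV-2 16681 at MOI 0.5 in MEM with 2% FCS; 3 days at 37° C. eGFP fluorescence read at 488 nm; inhibition versus virus and cell controls, EC50 by linear interpolation.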

The test system of data set [3] is DENV-4 strain EDEN (SG/06K2270DK1/2005). Kind of data set: Tetravalent RT-qPCR assay Protocol A, serotype 4 EDEN. Format: cell-based. The settings on record: Dengue virus, DENV4, 72 h; RT-qPCR serotype 4 EDEN, Vero cells, day 3. As for the experimental part:
as §1, §2, §4, §5, §3

The test system of another data set is DENV-4 strain H241. Briefly: Tetravalent RT-qPCR assay Protocol A, serotype 4 H241. The settings on record: Dengue virus, DENV4, 72 h; RT-qPCR serotype 4 H241, Vero cells, day 3. It counts as cell-based. Here is the method: as §1, §2, §4, §5, §3
Data set [4] has as its system Vero cells. Briefly: in vitro. Format: cell-based. The conditions noted are these: African green monkey, 3 days. As for the experimental part: as §1, §2, §3

`COc1cc(NC(C(=O)c2c[nH]c3cc(F)c(F)cc23)c2ccc(F)cc2OCCO)cc(S(C)(=O)=O)c1` (single isomer, unassigned) [Compound 5A, 1-(5,6-difluoro-1H-indol-3-yl)-2-(4-fluoro-2-(2-hydroxyethoxy)phenyl)-2-((3-methoxy-5-(methylsulfonyl)phenyl)-amino)ethanone] displayed a CC50 in the data set with Vero cells [1] of 3400 nM. For the same compound, the CC50 at 3 days in “in vitro” is more than 2500 nM. The EC50 in the data set with DENV-2 strain 16681 is 0.71 nM; with DENV-3 strain H87 it was 61 nM; with DENV-1 strain TC974#666 it was 4.1 nM; in [2], 0.51 nM; in data set [3], 3.7 nM; in the data set with DENV-4 strain H241, 180 nM.
`COc1cc(NC(C(=O)c2c[nH]c3cc(OC)c(OC(F)(F)F)cc23)c2ccc(F)cc2OCCO)cc(S(C)(=O)=O)c1` (single isomer, unassigned) [Compound 11B, 2-(4-fluoro-2-(2-hydroxyethoxy)phenyl)-2-((3-methoxy-5-(methyl-sulfonyl)phenyl)amino)-1-(6-methoxy-5-(trifluoromethoxy)-1H-indol-3-yl)ethanone]: the values for the CC50 in the data set with Vero cells [1] and in the data set on Vero cells [4] were 2400 nM and more than 2500 nM, respectively. The compound further showed a CC50 at 3 days in the data set “in vitro” of more than 2500 nM. Further, the half-maximal effective concentration (EC50) in the data set on DENV-2 strain 16681 is 0.14 nM; in the data set with DENV-3 strain H87, 7.3 nM; in the data set on DENV-1 strain TC974#666, 0.6 nM; in data set [2], 0.2 nM; in the data set on DENV-4 strain H241, 34 nM.

A word on the CC50: it is the concentration that lowers cell viability or growth by half. The term EC50 denotes the midpoint of the concentration-response curve.
